Where two headings read alike, the source gives them in different places.
Experiments:
human μ-opioid receptor = biological target: T1, human μ-opioid receptor (Homo sapiens, UniProt P35372); experiment: Human μ-opioid receptor radioligand assay ([3H]-DAMGO); assay type: binding
T1 construct: expressed in transfected cells; host or cells: CHO-K1
Experimental: Human μ-Opioid Receptor Radioligand Assay
To investigate binding properties of test compounds to human μ-opioid receptor, transfected CHO-K1 cell membranes and [^3H]-DAMGO (Perkin Elmer, ES-542-C), as the radioligand, were used. The assay was carried out with 20 μg of membrane suspension, 1 nM of [^3H]-DAMGO in either absence or presence of either buffer or 10 μM Naloxone for total and non-specific binding, respectively. Binding buffer contained Tris-HCl 50 mM, MgCl2 5 mM at pH 7.4. Plates were incubated at 27° C. for 60 minutes. After the incubation period, the reaction mix was then transferred to MultiScreen HTS, FC plates (Millipore), filtered and plates were washed 3 times with ice-cold 10 mM Tris-HCL (pH 7.4). Filters were dried and counted at approximately 40% efficiency in a MicroBeta scintillation counter (Perkin-Elmer) using EcoScint liquid scintillation cocktail. Preferably, transfected CHO-K1 cell membranes (20 μg) were incubated with 1 nM of [^3H]-DAMGO in assay buffer containing Tris-HCl 50 mM, MgCl2 5 mM at pH 7.4. NBS (non-specific binding) was measured by adding 10 μM Naloxone. The binding of the test compound was measured at five different concentrations. Plates were incubated at 27° C. for 60 minutes. After the incubation period, the reaction mix was then transferred to MultiScreen HTS, FC plates (Millipore), filtered and plates were washed 3 times with ice-cold 10 mM Tris-HCL (pH 7.4). Filters were dried and counted at approximately 40% efficiency in a MicroBeta scintillation counter (Perkin-Elmer) using EcoScint liquid scintillation cocktail.

[1] = biological target: Human α2δ-1 subunit of Cav2.2 calcium channel (Homo sapiens, UniProt P54289); experiment: Human α2δ-1 subunit of Cav2.2 calcium channel assay ([3H]-Gabapentin binding); conditions: human α2δ-1 enriched membranes, 15 nM [3H]-Gabapentin, binding expressed as Ki; read-out: α2δ1 binding activity
Experimental: Human α2δ-1 Subunit of Cav2.2 Calcium Channel Assay
Human α2δ-1 enriched membranes (2.5 μg) were incubated with 15 nM of radiolabeled [3H]-Gabapentin in assay buffer containing Hepes-KOH 10 mM, pH 7.4. NSB (non specific binding) was measured by adding 10 μM pregabalin. The binding of the test compound was measured at five different concentrations. After 60 min incubation at 27° C., binding reaction was terminated by filtering through Multiscreen GF/C (Millipore) presoaked in 0.5% polyethyleneimine in Vacuum Manifold Station, followed by 3 washes with ice-cold filtration buffer containing 50 mM Tris-HCl, pH 7.4. Filter plates were dried at 60° C. for 1 hour and 30 μl of scintillation cocktail were added to each well before radioactivity reading. Readings were performed in a Trilux 1450 Microbeta radioactive counter (Perkin Elmer).

[2] = transfected CHO-K1 cell membranes, 1 nM [3H]-DAMGO, binding expressed as Ki, read-out: Mu binding activity

Sequence of Human α2δ-1 subunit of Cav2.2 calcium channel (P54289 25-1103): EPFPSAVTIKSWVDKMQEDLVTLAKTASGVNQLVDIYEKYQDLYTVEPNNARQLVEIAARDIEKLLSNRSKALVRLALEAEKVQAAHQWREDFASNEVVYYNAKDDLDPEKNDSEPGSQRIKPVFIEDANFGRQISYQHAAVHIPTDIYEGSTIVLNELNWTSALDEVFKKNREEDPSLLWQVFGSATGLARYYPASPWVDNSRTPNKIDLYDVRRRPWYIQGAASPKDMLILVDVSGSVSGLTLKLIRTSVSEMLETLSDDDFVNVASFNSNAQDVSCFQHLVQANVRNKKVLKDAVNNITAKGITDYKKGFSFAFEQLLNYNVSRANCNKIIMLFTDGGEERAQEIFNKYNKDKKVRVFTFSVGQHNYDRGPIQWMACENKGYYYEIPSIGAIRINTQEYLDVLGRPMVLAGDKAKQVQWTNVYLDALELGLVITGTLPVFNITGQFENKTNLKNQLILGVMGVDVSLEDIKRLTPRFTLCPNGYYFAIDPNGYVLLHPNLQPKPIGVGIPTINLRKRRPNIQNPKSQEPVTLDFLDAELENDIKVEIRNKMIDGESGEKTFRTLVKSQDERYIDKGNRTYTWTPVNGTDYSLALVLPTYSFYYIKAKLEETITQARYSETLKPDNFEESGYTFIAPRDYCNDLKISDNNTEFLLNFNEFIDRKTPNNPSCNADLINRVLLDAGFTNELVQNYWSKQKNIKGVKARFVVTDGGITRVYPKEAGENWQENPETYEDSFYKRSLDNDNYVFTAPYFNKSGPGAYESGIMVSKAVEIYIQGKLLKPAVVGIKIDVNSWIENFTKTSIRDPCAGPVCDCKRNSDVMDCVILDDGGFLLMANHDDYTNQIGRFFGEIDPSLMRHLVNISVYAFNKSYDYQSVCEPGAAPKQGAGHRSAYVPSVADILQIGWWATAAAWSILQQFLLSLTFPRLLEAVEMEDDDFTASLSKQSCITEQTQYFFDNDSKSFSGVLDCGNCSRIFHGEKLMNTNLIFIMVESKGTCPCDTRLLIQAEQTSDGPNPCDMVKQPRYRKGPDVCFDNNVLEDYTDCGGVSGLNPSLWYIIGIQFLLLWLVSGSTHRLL
T1 sequence (P35372 whole entry): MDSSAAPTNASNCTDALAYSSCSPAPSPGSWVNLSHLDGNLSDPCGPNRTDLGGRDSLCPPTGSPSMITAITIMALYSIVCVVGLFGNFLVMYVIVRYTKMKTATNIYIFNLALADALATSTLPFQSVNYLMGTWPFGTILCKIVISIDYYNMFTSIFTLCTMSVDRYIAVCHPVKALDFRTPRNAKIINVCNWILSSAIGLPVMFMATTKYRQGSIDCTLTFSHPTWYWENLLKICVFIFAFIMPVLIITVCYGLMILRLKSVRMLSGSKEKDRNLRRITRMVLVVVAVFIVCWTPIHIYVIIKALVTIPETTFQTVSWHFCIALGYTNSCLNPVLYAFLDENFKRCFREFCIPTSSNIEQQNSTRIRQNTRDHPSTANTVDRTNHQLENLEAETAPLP

CCOc1ccc(-n2nc3c(C4CCN(C(=O)OC(C)(C)C)CC4)nnc(C)c3c2C)c(F)c1 [Ex 13, tert-Butyl 4-(2-(4-ethoxy-2-fluorophenyl)-3,4-dimethyl-2H-pyrazolo[3,4-d]pyridazin-7-yl)piperidine-1-carboxylate]
Ki (human μ-opioid receptor; [2]): > 500 nM | Ki [1]: ≥ 5000 nM

CCOc1ccc(-n2nc3c(C4CCN(C)CC4)nnc(C)c3c2C)c(F)c1 [Ex 14, 2-(4-Ethoxy-2-fluorophenyl)-3,4-dimethyl-7-(1-methylpiperidin-4-yl)-2H-pyrazolo[3,4-d]pyridazine]
Ki (human μ-opioid receptor; [2]): > 500 nM | Ki [1]: 500 to 3000 nM

CCOc1ccc(-n2nc3c(C4CCCN(C(=O)OC(C)(C)C)C4)nnc(C)c3c2C)c(F)c1 (stereo not drawn) [Ex 15, tert-Butyl-3-(2-(4-ethoxy-2-fluorophenyl)-3,4-dimethyl-2H-pyrazolo[3,4-d]pyridazin-7-yl)piperidine-1-carboxylate]
Ki (human μ-opioid receptor; [2]): > 500 nM | Ki [1]: ≥ 5000 nM

CCOc1ccc(-n2nc3c(CCCNC(=O)OC(C)(C)C)nnc(C)c3c2C)c(F)c1 [Ex 16, tert-Butyl-(3-(2-(4-ethoxy-2-fluorophenyl)-3,4-dimethyl-2H-pyrazolo[3,4-d]pyridazin-7-yl)propyl)carbamate]
Ki (human μ-opioid receptor; [2]): > 500 nM | Ki [1]: ≥ 5000 nM

CCOc1ccc(-n2nc3c(CCCN(C)C(=O)OC(C)(C)C)nnc(C)c3c2C)c(F)c1 [Ex 17, tert-Butyl-(3-(2-(4-ethoxy-2-fluorophenyl)-3,4-dimethyl-2H-pyrazolo[3,4-d]pyridazin-7-yl)propyl)(methyl)carbamate]
Ki (human μ-opioid receptor; [2]): > 500 nM | Ki [1]: ≥ 5000 nM

CCOc1ccc(-n2nc3c(C4CCNCC4)nnc(C)c3c2C)c(F)c1 [Ex 18, 2-(4-Ethoxy-2-fluorophenyl)-3,4-dimethyl-7-(piperidin-4-yl)-2H-pyrazolo[3,4-d]pyridazine]
Ki (human μ-opioid receptor; [2]): > 500 nM | Ki [1]: 500 to 3000 nM

CCOc1ccc(-n2nc3c(C4CCCNC4)nnc(C)c3c2C)c(F)c1 (stereo not drawn) [Ex 19, 2-(4-Ethoxy-2-fluorophenyl)-3,4-dimethyl-7-(piperidin-3-yl)-2H-pyrazolo[3,4-d]pyridazine]
Ki (human μ-opioid receptor; [2]): > 500 nM | Ki [1]: ≥ 5000 nM

CCOc1ccc(-n2nc3c(CCCN)nnc(C)c3c2C)c(F)c1 [Ex 20, 3-(2-(4-Ethoxy-2-fluorophenyl)-3,4-dimethyl-2H-pyrazolo[3,4-d]pyridazin-7-yl)propan-1-amine]
Ki (human μ-opioid receptor; [2]): > 500 nM | Ki [1]: 500 to 3000 nM

CCOc1ccc(-n2nc3c(CCCNC)nnc(C)c3c2C)c(F)c1 [Ex 21, 3-(2-(4-Ethoxy-2-fluorophenyl)-3,4-dimethyl-2H-pyrazolo[3,4-d]pyridazin-7-yl)-N-methylpropan-1-amine]
Ki (human μ-opioid receptor; [2]): > 500 nM | Ki [1]: ≥ 5000 nM

CCOc1ccc(-n2nc3c(C4CNC4)nnc(C)c3c2C)c(F)c1 [Ex 22, 7-(Azetidin-3-yl)-2-(4-ethoxy-2-fluorophenyl)-3,4-dimethyl-2H-pyrazolo[3,4-d]pyridazine]
Ki (human μ-opioid receptor; [2]): > 500 nM | Ki [1]: ≥ 5000 nM

CCOc1ccc(-n2nc3c(CCN)nnc(C)c3c2C)c(F)c1 [Ex 23, 2-(2-(4-Ethoxy-2-fluorophenyl)-3,4-dimethyl-2H-pyrazolo[3,4-d]pyridazin-7-yl)ethan-1-amine]
Ki (human μ-opioid receptor; [2]): > 500 nM | Ki [1]: ≥ 5000 nM

CCOc1ccc(-n2nc3c(-c4ccc5ncn(CCN)c5c4)nnc(C)c3c2C)c(F)c1 [Ex 24, 2-(6-(2-(4-Ethoxy-2-fluorophenyl)-3,4-dimethyl-2H-pyrazolo[3,4-d]pyridazin-7-yl)-1H-benzo[d]imidazol-1-yl)ethan-1-amine]
Ki (human μ-opioid receptor; [2]): > 500 nM | Ki [1]: 3000 to 5000 nM

CCOc1ccc(-n2nc3c(C4CCN(CCc5ccccc5)CC4)nnc(C)c3c2C)c(F)c1 [Ex 25, 2-(4-Ethoxy-2-fluorophenyl)-3,4-dimethyl-7-(1-phenethylpiperidin-4-yl)-2H-pyrazolo[3,4-d]pyridazine]
Ki (human μ-opioid receptor): < 500 nM | Ki [1]: 500 to 3000 nM

CCOc1ccc(-n2nc3c(C4CCN(Cc5ccccc5)CC4)nnc(C)c3c2C)c(F)c1 [Ex 26, 7-(1-Benzylpiperidin-4-yl)-2-(4-ethoxy-2-fluorophenyl)-3,4-dimethyl-2H-pyrazolo[3,4-d]pyridazine]
Ki (human μ-opioid receptor): < 500 nM | Ki [1]: < 500 nM

CCOc1ccc(-n2nc3c(C4CCN(Cc5ccc(F)cc5)CC4)nnc(C)c3c2C)c(F)c1 [Ex 27, 2-(4-Ethoxy-2-fluorophenyl)-7-(1-(4-fluorobenzyl)piperidin-4-yl)-3,4-dimethyl-2H-pyrazolo[3,4-d]pyridazine]
Ki (human μ-opioid receptor; [2]): > 500 nM | Ki [1]: 500 to 3000 nM

CCOc1ccc(-n2nc3c(C4CCN(Cc5ccccn5)CC4)nnc(C)c3c2C)c(F)c1 [Ex 28, 2-(4-Ethoxy-2-fluorophenyl)-3,4-dimethyl-7-(1-(pyridin-2-ylmethyl)piperidin-4-yl)-2H-pyrazolo[3,4-d]pyridazine]
Ki (human μ-opioid receptor): < 500 nM | Ki [1]: 500 to 3000 nM

CCOc1ccc(-n2nc3c(C4CCN(Cc5cccnc5)CC4)nnc(C)c3c2C)c(F)c1 [Ex 29, 2-(4-Ethoxy-2-fluorophenyl)-3,4-dimethyl-7-(1-(pyridin-3-ylmethyl)piperidin-4-yl)-2H-pyrazolo[3,4-d]pyridazine]
Ki (human μ-opioid receptor; [2]): > 500 nM | Ki [1]: 500 to 3000 nM

CCOc1ccc(-n2nc3c(C4CCN(Cc5ccncc5)CC4)nnc(C)c3c2C)c(F)c1 [Ex 30, 2-(4-Ethoxy-2-fluorophenyl)-3,4-dimethyl-7-(1-(pyridin-4-ylmethyl)piperidin-4-yl)-2H-pyrazolo[3,4-d]pyridazine]
Ki (human μ-opioid receptor; [2]): > 500 nM | Ki [1]: 500 to 3000 nM

CCOc1ccc(-n2nc3c(C4CCN(Cc5ncccc5O)CC4)nnc(C)c3c2C)c(F)c1 [Ex 31, 2-((4-(2-(4-Ethoxy-2-fluorophenyl)-3,4-dimethyl-2H-pyrazolo[3,4-d]pyridazin-7-yl)piperidin-1-yl)methyl)pyridin-3-ol]
Ki (human μ-opioid receptor; [2]): > 500 nM | Ki [1]: 500 to 3000 nM

CCOc1ccc(-n2nc3c(C4CCN(CC5CC5)CC4)nnc(C)c3c2C)c(F)c1 [Ex 32, 7-(1-(Cyclopropyl-methyl)piperidin-4-yl)-2-(4-ethoxy-2-fluorophenyl)-3,4-dimethyl-2H-pyrazolo[3,4-d]pyridazine]
Ki (human μ-opioid receptor; [2]): > 500 nM | Ki [1]: 500 to 3000 nM

CCOc1ccc(-n2nc3c(C4CCN(CC5CCOCC5)CC4)nnc(C)c3c2C)c(F)c1 [Ex 33, 2-(4-Ethoxy-2-fluorophenyl)-3,4-dimethyl-7-(1-((tetrahydro-2H-pyran-4-yl)methyl)piperidin-4-yl)-2H-pyrazolo[3,4-d]pyridazine]
Ki (human μ-opioid receptor; [2]): > 500 nM | Ki [1]: 500 to 3000 nM

CCOc1ccc(-n2nc3c(C4CCN(CCC5CCOCC5)CC4)nnc(C)c3c2C)c(F)c1 [Ex 34, 2-(4-Ethoxy-2-fluorophenyl)-3,4-dimethyl-7-(1-(2-(tetrahydro-2H-pyran-4-yl)ethyl)piperidin-4-yl)-2H-pyrazolo[3,4-d]pyridazine]
Ki (human μ-opioid receptor; [2]): > 500 nM | Ki [1]: 3000 to 5000 nM

CCOc1ccc(-n2nc3c(C4CCN(Cc5cn(Cc6ccccn6)nn5)CC4)nnc(C)c3c2C)c(F)c1 [Ex 35, 2-(4-Ethoxy-2-fluorophenyl)-3,4-dimethyl-7-(1-((1-(pyridin-2-ylmethyl)-1H-1,2,3-triazol-4-yl)methyl)piperidin-4-yl)-2H-pyrazolo[3,4-d]pyridazine]
Ki (human μ-opioid receptor; [2]): > 500 nM | Ki [1]: 500 to 3000 nM

CCOc1ccc(-n2nc3c(C4CCCN(Cc5ccccc5)C4)nnc(C)c3c2C)c(F)c1 (stereo not drawn) [Ex 36, 7-(1-Benzylpiperidin-3-yl)-2-(4-ethoxy-2-fluorophenyl)-3,4-dimethyl-2H-pyrazolo[3,4-d]pyridazine]
Ki (human μ-opioid receptor; [2]): > 500 nM | Ki [1]: 500 to 3000 nM

CCOc1ccc(-n2nc3c(C4CN(CCc5ccccc5)C4)nnc(C)c3c2C)c(F)c1 [Ex 37, 2-(4-Ethoxy-2-fluorophenyl)-3,4-dimethyl-7-(1-phenethylazetidin-3-yl)-2H-pyrazolo[3,4-d]pyridazine]
Ki (human μ-opioid receptor; [2]): > 500 nM | Ki [1]: 500 to 3000 nM

CCOc1ccc(-n2nc3c(CCCNCc4ccccc4)nnc(C)c3c2C)c(F)c1 [Ex 38, N-Benzyl-3-(2-(4-ethoxy-2-fluorophenyl)-3,4-dimethyl-2H-pyrazolo[3,4-d]pyridazin-7-yl)propan-1-amine]
Ki (human μ-opioid receptor; [2]): > 500 nM | Ki [1]: 500 to 3000 nM

CCOc1ccc(-n2nc3c(CCCN(C)CCc4ccccc4)nnc(C)c3c2C)c(F)c1 [Ex 39, 3-(2-(4-Ethoxy-2-fluorophenyl)-3,4-dimethyl-2H-pyrazolo[3,4-d]pyridazin-7-yl)-N-methyl-N-phenethylpropan-1-amine]
Ki (human μ-opioid receptor; [2]): > 500 nM | Ki [1]: 500 to 3000 nM

Reference: patent US20200190087A1 (priority 2016, published 2020)
